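The compound was tested at five concentrations on cells cultured in 96-well plates, with a 48-hour exposure period. The concentration for 50% growth inhibition is given as GI50. The concentration for full growth arrest is given as TGI.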
Key:
Assay in all cases: inhibition of tumour cell growth, NCI panel, 48 h
[1] = tested on: 786-0 renal
[2] = tested on: A498 renal
[3] = tested on: A549 NSCLC
[4] = tested on: ACHN renal
[5] = tested on: BT-549 breast
[6] = tested on: CAKI-1 renal
[7] = tested on: CCRF-CEM leukemia
[8] = tested on: COLO 205 colon
[9] = tested on: EKVX NSCLC
[10] = tested on: HCT-116 colon
[11] = tested on: HCT-15 colon
[12] = tested on: HL-60(TB) leukemia
[13] = tested on: HOP-62 NSCLC
[14] = tested on: HOP-92 NSCLC
[15] = tested on: HS 578T breast
[16] = tested on: HT29 colon
[17] = tested on: IGROV1 ovarian
[18] = tested on: K-562 leukemia
[19] = tested on: KM12 colon
[20] = tested on: LOX IMVI melanoma
[21] = tested on: M14 melanoma
[22] = tested on: MALME-3M melanoma
[23] = tested on: MCF7 breast
[24] = tested on: MDA-MB-231 breast
[25] = tested on: MDA-MB-435
[26] = tested on: MOLT-4 leukemia
[27] = tested on: NCI-H226 lung
[28] = tested on: NCI-H23 lung
[29] = tested on: NCI-H460 lung
[30] = tested on: NCI-H522 lung
[31] = tested on: NCI/ADR-RES ovarian
[32] = tested on: OVCAR-3 ovarian
[33] = tested on: OVCAR-4 ovarian
[34] = tested on: OVCAR-5 ovarian
[35] = tested on: OVCAR-8 ovarian
[36] = tested on: PC-3 prostate
[37] = tested on: RPMI-8226 leukemia
[38] = tested on: SF-268 CNS
[39] = tested on: SF-295 CNS
[40] = tested on: SF-539 CNS
[41] = tested on: SK-MEL-2 melanoma
[42] = tested on: SK-MEL-28 melanoma
[43] = tested on: SK-MEL-5 melanoma
[44] = tested on: SK-OV-3 ovarian
[45] = tested on: SN12C renal
[46] = tested on: SNB-19 CNS
[47] = tested on: SNB-75 CNS
[48] = tested on: SR leukemia
[49] = tested on: SW-620 colon
[50] = tested on: T-47D breast
[51] = tested on: TK-10 renal
[52] = tested on: U251 CNS
[53] = tested on: UACC-257 melanoma
[54] = tested on: UACC-62 melanoma
[55] = tested on: UO-31 renal

Q: Which results are given for `COc1cc(CCNC(=O)OC(C)(C)C)c2c(c1OC)SSSSS2`?
A: GI50 [1]: 2.08 µM; TGI [1]: 5.56 µM; GI50 [2]: 1.6 µM; TGI [2]: 3.09 µM; GI50 [3]: 3.36 µM; TGI [3]: 10.2 µM; GI50 [4]: 2.56 µM; TGI [4]: 4.93 µM; GI50 [5]: 2.54 µM; TGI [5]: 5.06 µM; GI50 [6]: 2.17 µM; TGI [6]: 4.28 µM; GI50 [7]: 5.34 µM; TGI [7]: 65.2 µM; GI50 [8]: 2.19 µM; TGI [8]: 4.35 µM; GI50 [9]: 2.69 µM; TGI [9]: 5.97 µM; GI50 [10]: 5.51 µM; TGI [10]: > 100 µM; GI50 [11]: 2.45 µM; TGI [11]: 5.78 µM; GI50 [12]: 2.92 µM; TGI [12]: 13.4 µM; GI50 [13]: 3.71 µM; TGI [13]: 15.3 µM; GI50 [14]: 2.31 µM; TGI [14]: 4.79 µM; GI50 [15]: 3.79 µM; TGI [15]: 32.6 µM; GI50 [16]: 1.86 µM; TGI [16]: 4.02 µM; GI50 [17]: 2.2 µM; TGI [17]: 4.63 µM; GI50 [18]: 2.45 µM; TGI [18]: 21.3 µM; GI50 [19]: 3.67 µM; TGI [19]: 12.2 µM; GI50 [20]: 2.79 µM; TGI [20]: 6.75 µM; GI50 [21]: 4.13 µM; TGI [21]: 50.7 µM; GI50 [22]: 2.48 µM; TGI [22]: 4.94 µM; GI50 [23]: 1.77 µM; TGI [23]: 5.06 µM; GI50 [24]: 2.58 µM; TGI [24]: 5.82 µM; GI50 [25]: 2.28 µM; TGI [25]: 4.78 µM; GI50 [26]: 5.46 µM; TGI [26]: > 100 µM; GI50 [27]: 4.3 µM; TGI [27]: 24.4 µM; GI50 [28]: 3.56 µM; TGI [28]: 20.3 µM; GI50 [29]: 2.04 µM; TGI [29]: 4.81 µM; GI50 [30]: 2.1 µM; TGI [30]: 4.18 µM; GI50 [31]: 3.64 µM; TGI [31]: 70.2 µM; GI50 [32]: 2.65 µM; TGI [32]: 5.51 µM; GI50 [33]: 2.05 µM; TGI [33]: 4.82 µM; GI50 [34]: 3.14 µM; TGI [34]: 9.23 µM; GI50 [35]: 3.53 µM; TGI [35]: 11.7 µM; GI50 [36]: 3.72 µM; TGI [36]: 13.6 µM; GI50 [37]: 2.11 µM; TGI [37]: 10.7 µM; GI50 [38]: 1.87 µM; TGI [38]: 4.04 µM; GI50 [39]: 2.76 µM; TGI [39]: 6.43 µM; GI50 [40]: 3.42 µM; TGI [40]: 10.4 µM; GI50 [41]: 2.45 µM; TGI [41]: 5.68 µM; GI50 [42]: 1.9 µM; TGI [42]: 3.68 µM; GI50 [43]: 1.84 µM; TGI [43]: 3.38 µM; GI50 [44]: 2.8 µM; TGI [44]: 6.05 µM; GI50 [45]: 3.74 µM; TGI [45]: 15.8 µM; GI50 [46]: 2.7 µM; TGI [46]: 5.63 µM; GI50 [47]: 2.27 µM; TGI [47]: 4.56 µM; GI50 [48]: 4.48 µM; TGI [48]: 32.8 µM; GI50 [49]: 2.8 µM; TGI [49]: 7.69 µM; GI50 [50]: 2.77 µM; TGI [50]: 5.92 µM; GI50 [51]: 2.63 µM; TGI [51]: 5.5 µM; GI50 [52]: 2.47 µM; TGI [52]: 5.28 µM; GI50 [53]: 2.93 µM; TGI [53]: 5.48 µM; GI50 [54]: 3.93 µM; TGI [54]: 15.5 µM; GI50 [55]: 2.18 µM; TGI [55]: 5.47 µM

Source: PubChem BioAssay (NCI)
